The values below come from ChEMBL document CHEMBL1955862, “Novel N'-benzylidene benzofuran-3-carbohydrazide derivatives as antitubercular and antifungal agents” (2012).

SMILES strings stand for the structures. Values after ≈ are worked out from the molar mass of the structure shown. A value given as a limit tells only on which side of the number the result lay.

Assay [1] has as its system Mycobacterium tuberculosis. In words: Antituberculosis activity against Mycobacterium tuberculosis H37Rv by REMA method. Type of assay: functional.
The next assay deals with Candida albicans. The assay can be described thus: Antifungal activity against Candida albicans. Type of assay: functional.

Regarding `Cc1ccc(/C=N/NC(=O)c2coc3c(Cl)cc(Cl)cc23)cc1`, the MIC in assay [1] was 128 µg/mL (≈ 369 µM); in the assay on Candida albicans, under 15.6 µg/mL. On to `O=C(N/N=C/c1ccc([N+](=O)[O-])cc1)c1coc2c(Cl)cc(Cl)cc12`, for which the MIC stood at 128 µg/mL (≈ 338 µM) in assay [1] and 125 µg/mL (≈ 331 µM) in the assay with Candida albicans. In turn, `NNC(=O)c1ccncc1` [ISONIAZID] yielded an MIC in assay [1] of 0.25 µg/mL (≈ 1.82 µM). As to `O=C(N/N=C/c1ccccc1O)c1coc2c(Cl)cc(Cl)cc12`, the values for the minimal inhibitory concentration (MIC) (in assay [1]; against Candida albicans) were 32 µg/mL (≈ 91.6 µM) and over 250 µg/mL, respectively. In the same order, the values of `O=C(N/N=C/c1ccccc1)c1coc2ccccc12` are 2 µg/mL (≈ 7.57 µM) and over 250 µg/mL. In the same order, the values of `O=C(N/N=C/c1ccc([N+](=O)[O-])cc1)c1coc2ccccc12` are 128 µg/mL (≈ 414 µM) and over 250 µg/mL. In the same order, the values of `O=C(N/N=C/c1cccc2ccccc12)c1coc2ccccc12` are 128 µg/mL (≈ 407 µM) and 125 µg/mL (≈ 398 µM). As to `COc1ccc(/C=N/NC(=O)c2coc3ccccc23)c(OC)c1`, the minimum inhibitory concentration (MIC) is 128 µg/mL (≈ 395 µM) in assay [1] and over 250 µg/mL against Candida albicans. With `Cc1ccc(/C=N/NC(=O)c2coc3ccccc23)cc1`, the minimum inhibitory concentration (MIC) was 128 µg/mL (≈ 460 µM) in assay [1] and over 250 µg/mL with Candida albicans. For `O=C(N/N=C/c1cc(Cl)cc(Cl)c1O)c1coc2ccccc12`, the minimum inhibitory concentration (MIC) in assay [1] is 128 µg/mL (≈ 367 µM); in the assay on Candida albicans it was 31.2 µg/mL (≈ 89.5 µM). In the same order, the values of `O=C(N/N=C/c1cccc2ccccc12)c1coc2c(Cl)cc(Cl)cc12` are 128 µg/mL (≈ 334 µM) and under 15.6 µg/mL. The corresponding values for `O=C(N/N=C/c1ccc(Cl)cc1)c1coc2ccccc12` are 128 µg/mL (≈ 428 µM) and over 250 µg/mL. In the same order, the values of `O=C(N/N=C/c1c(Cl)cccc1Cl)c1coc2c(Cl)cc(Cl)cc12` are 128 µg/mL (≈ 318 µM) and 62.5 µg/mL (≈ 155 µM). Consider `O=C(N/N=C/c1c(Cl)cccc1Cl)c1coc2ccccc12`, for which the results for the MIC (in assay [1]; with Candida albicans) were 128 µg/mL (≈ 384 µM) and over 250 µg/mL, respectively.

Regarding `O=C(N/N=C/c1ccccc1)c1coc2c(Cl)cc(Cl)cc12`, the MIC in assay [1] was 2 µg/mL (≈ 6 µM); against Candida albicans it was over 250 µg/mL. For `O=C(N/N=C/c1cc(Cl)cc(Cl)c1O)c1coc2c(Cl)cc(Cl)cc12`, the MIC in assay [1] stood at 128 µg/mL (≈ 306 µM); with Candida albicans, 250 µg/mL (≈ 598 µM). The corresponding values for `COc1ccc(/C=N/NC(=O)c2coc3c(Cl)cc(Cl)cc23)c(OC)c1` are 64 µg/mL (≈ 163 µM) and over 250 µg/mL.

Turning to `O=C(N/N=C/c1ccccc1O)c1coc2ccccc12`, the figures for the MIC (in assay [1]; with Candida albicans) were 64 µg/mL (≈ 228 µM) and over 250 µg/mL, respectively.

On to `O=C(N/N=C/c1ccc(Cl)cc1)c1coc2c(Cl)cc(Cl)cc12`, for which the minimal inhibitory concentration (MIC) in assay [1] is 128 µg/mL (≈ 348 µM); against Candida albicans, over 250 µg/mL. The corresponding values for `O=C(N/N=C/c1ccc(O)cc1)c1coc2c(Cl)cc(Cl)cc12` are 128 µg/mL (≈ 367 µM) and over 250 µg/mL.

Consider `O=C(N/N=C/c1ccc(O)cc1)c1coc2ccccc12`, for which the MIC is 64 µg/mL (≈ 228 µM) in assay [1] and over 250 µg/mL against Candida albicans.
